From PubChem BioAssay AID743267 (Broad Institute, 2014) come the findings set out here.

The test system of this test is human bronchial epithelial cells, CFTR corrector, plate reader. Nature of the test: CFTR ΔF508 corrector activity in bronchial cells, dose response, human bronchial epithelial cells, plate reader, cherry-pick, two tests (AID 743267).
The mark [1] stands for this setting: measured here: test 2 replicate run.
Setting [2] is: measured here: test 1 replicate run.

Take `CC(=Nc1ccccc1O)c1sc2ccccc2c1O`: under setting [1], the AC50 is 11.8 µM.

In the case of `COc1cccc2c1C(=O)c1c(O)c3c(c(O)c1C2=O)CC(O)(C(C)=O)CC3OC1CC(N(C)C)C(O)C(C)O1` (configuration not stated), the AC50 under setting [1] is 14.8 µM. This AC50 and that of the compound before are within 1.5-fold of each other.

With `Cn1cccc1/C=C1\SC(=Nc2ccccc2)NC1=O`, under setting [1], the AC50 came out at 2.89 µM.

The compound `CC(=O)Oc1ccc(N2C(=O)c3cccc4c([N+](=O)[O-])ccc(c34)C2=O)cc1` gave an AC50 under setting [1] of 20.6 µM.

`Cc1ccc(OCC(=O)Nc2ccc3c(c2)ncn3C)cc1` had an AC50 under setting [1] above 50 µM.

For `OC[C@@H]1CN(Cc2ccc(-c3ccccc3)cc2)C[C@H](n2cnc3c(NC4CC4)ncnc32)O1`, under setting [1], the AC50 was above 50 µM.

The compound `COc1ccccc1NS(=O)(=O)c1cc(-c2cnc(C3CC3)o2)ccc1C` showed an AC50 under setting [1] of 9.51 µM.

Take `COc1nc(N)nc(NC(=O)c2cccs2)c1N=O`: the AC50 under setting [1] is 16 µM.

On to `O=C(O)CCCCCCCCc1cn(Cc2ccc(C(=O)c3ccccc3)cc2)nn1`, for which the AC50 under setting [1] is 2.17 µM.

In turn, `Cc1cccc(N(C)S(=O)(=O)c2ccc(-c3cc(C)no3)s2)c1` had a concentration at half-maximal activity (AC50) under setting [1] of 0.738 µM.

Take `COCCCNc1nnc(Cc2ccc(Cl)cc2)c(=O)[nH]1`: the AC50 under setting [1] was 3.78 µM. This AC50 lies about 5.1-fold higher than the previous one.

The compound `COc1ccccc1N1CCN(C(=O)c2ccc(-c3ccc(Cl)cc3)o2)CC1` had an AC50 under setting [1] of 6.64 µM. Compared with the last compound, the AC50 is about 1.8-fold higher.

On to `COc1cccc(-c2ccc(C3[C@@H]4CN(S(=O)(=O)c5cccc(OC)c5)C[C@H]3N4)cc2)c1` (some centres not stated), for which, under setting [2], the AC50 was 13.5 µM.

`CCN[C@H]1CN(CCCOC)S(=O)(=O)c2sc(S(N)(=O)=O)cc21` returned an AC50 under setting [1] of 0.0398 µM. That is a double-digit nanomolar value.

For `CN[C@H]1CCc2cc(OC)c(OC)c(OC)c2-c2ccc(N(C)CC(OC)OC)c(=O)cc21`, under setting [1], the AC50 turned out to be 3.25 µM.

As to `Cc1cc2nnc(SCC(=O)NCc3ccco3)n2c2ccccc12`, under setting [1], the AC50 was 6.63 µM.

Turning to `N#CC1=C(N)OC2=C(CCc3ccccc32)C1c1ccccc1Cl` (configuration not stated), under setting [1], the AC50 stood at 2.61 µM.

Under setting [1], `O=S(=O)(c1ccc(Br)cc1)N1CCCc2ccccc21` returned an AC50 above 50 µM.

The compound `c1ccc2c(c1)C1=NCCN1c1ccccc1-2` returned an AC50 under setting [1] of 2.93 µM.

As to `O=Cc1ccccc1OCc1ccc2c(c1)OCO2`, the AC50 under setting [1] turned out to be 14.5 µM.

Consider `CCN(CC)CCn1c2ccccc2c2nc3ccccc3nc21`, for which the AC50 under setting [1] was 11.3 µM.

In turn, `C[C@H]1CN([C@@H](C)CO)S(=O)(=O)c2ccc(-c3ccc(C#N)cc3)cc2O[C@@H]1CN(C)Cc1ccccn1` had a concentration at half-maximal activity (AC50) under setting [2] of 3.39 µM.

`Cc1cc(NCc2ccccn2)n2nc(C)c(-c3ccccc3)c2n1`: under setting [1], the AC50 was determined as 4.77 µM.

Regarding `CCOc1ccc(NC(=O)c2cc(OC)nc3ccccc23)cc1`, under setting [1], the AC50 stood at 1.7 µM.

Regarding `Nc1ccn([C@@H]2O[C@H](C(=O)NCC(F)(F)F)[C@@H](O)[C@H]2O)c(=O)n1`, under setting [1], the AC50 was above 50 µM.

Under setting [1], `N#CC(C#N)=C1C=C2C=C(N3CCCCCC3)CCC2CC1` (configuration not stated) yielded an AC50 of 0.239 µM.

Regarding `N#C/C(=C/c1ccc(N2CCCCC2)o1)C(=O)Nc1ccc2ccccc2c1`, the half-maximal activity concentration (AC50) under setting [1] worked out at 6.64 µM.

Regarding `Cc1ncc(CO)c(/C=N/Nc2ccc(C(F)(F)F)cn2)c1O`, the AC50 under setting [1] is 1.18 µM.

`C[C@@H]1CN([C@H](C)CO)S(=O)(=O)c2ccc(-c3ccc(C#N)cc3)cc2O[C@H]1CN(C)Cc1ccccn1` had an AC50 under setting [2] of 16 µM.

Turning to `O=C(CCc1ccccc1)NCC(c1ccco1)N1CCc2ccccc21` (configuration not stated), the AC50 under setting [1] is 4.6 µM.

Under setting [1], `COc1ccc(OC)c2[nH]c(C(=O)N/N=C/c3ccccc3O)cc12` registered an AC50 of 2.6 µM. Against the preceding compound, the AC50 is about 1.8-fold lower.

The compound `COC(=O)C[C@@H]1CC[C@@H]2[C@H](COc3ccc(NC(=O)c4ccc(C(F)(F)F)cc4)cc3C(=O)N2C)O1` registered an AC50 under setting [2] of 19.2 µM.

In the case of `CN(Cc1ccco1)c1ncnc2ccc(-c3ccc4c(ccn4C)c3)cc12`, under setting [1], the AC50 amounted to 1.77 µM. That is a single-digit micromolar value.

Under setting [1], `Nc1ccc(-c2c3ccc(=O)cc-3oc3cc(O)ccc23)cc1C(=O)O` displayed an AC50 of 7.85 µM.

`O=C(NCCOc1ccccc1)c1cc([N+](=O)[O-])ccc1N1CCOCC1` came in with an AC50 under setting [1] of 2.66 µM.

`CCN(CC)C1=CC2=CC(=C(C#N)C#N)CCC2CC1` (configuration not stated) showed an AC50 under setting [1] of 0.948 µM.

Under setting [1], `COC(=O)c1ccc(/C=C/c2c(-c3ccc(OC)cc3)oc3ccc(N4CCOCC4)cc23)cc1` returned an AC50 of 16 µM.

Consider `COc1ccc([C@H]2C[C@H](O)[C@@H](n3cc(-c4ccc(F)cc4)nn3)CN2Cc2cccs2)cc1`, for which the AC50 under setting [1] was found to be 16 µM.

Compound `COc1cccc(C(=O)Nc2sc3c(c2C#N)CCN(C(C)=O)C3)c1` yielded an AC50 under setting [1] of 1.36 µM.

Under setting [1], `COc1ccc(OC)c(/C(C)=N\NC(=O)c2cc3cc(Cl)ccc3n2C)c1` returned an AC50 of 8.3 µM.

The compound `COc1cc(C(=O)Nc2ccc(C)cc2)c2ccccc2n1` yielded an AC50 under setting [1] of 1.26 µM.

`COc1cccc(C2c3cc4c(cc3OC(NNC(N)=O)C2C)OCO4)c1O` (configuration not stated) had an AC50 under setting [1] of 3.18 µM.

Take `Cc1nnc(NC(=O)CSc2nccn2-c2cccc(C)c2C)s1`: under setting [1], the AC50 worked out at 7.08 µM.

Take `NC1(C(=O)O)CC1`: the AC50 under setting [1] was above 50 µM.

In turn, `O=C(N/N=C/c1cc(Br)cc(Cl)c1O)c1ccc2c(c1)OCO2` returned an AC50 under setting [1] of 9.98 µM.

In the case of `COc1ccc(-c2ccnc(-c3ccc(O)cc3)n2)cc1`, the AC50 under setting [1] was 1.43 µM. Against the preceding compound, the AC50 is about 7-fold lower.

In turn, `Cc1ccc(-c2ccc3c(c2)O[C@H](CN(C)Cc2ccccn2)[C@@H](C)CN([C@@H](C)CO)S3(=O)=O)cc1` gave an AC50 under setting [2] of 18 µM.

A word on the AC50: it is the concentration at which the activity in the assay is half-maximal. A higher AC50 goes with activity only at high concentration.
